The test system of one assay is MV-4-11. As to the kind of experiment: Cytostatic activity on human acute myeloid leukemia cell line MV-4-11 (WST-1). The assay is classed as cell-based. Particulars: MV4-11, 3.16 μmol/L, 72 hours, read-out: MV-4-11 (%) cytostatic rate. As to the method:
(§1) The cytostatic rates of a test compound on human acute myeloid leukemia cell lines MV-4-11 and ML-1, and human chronic myeloid leukemia cell line K562 were determined in the following manner.
(§2) Each cell was cultured using Roswell Park Memorial Institute's Medium (RPMI) 1640 (Gibco, Catalog No. 11875-093) containing 10% fetal bovine serum (Gibco, Catalogue No. 10437-028) and penicillin/streptomycin (1:1) (Gibco, Catalogue No. 15140-122). Each 80 μL of the MV-4-11 cell having a concentration of 7.5×10^4 cells/mL (or the ML-1 cell or K562 cell having a concentration of 2.5×10^4 cells/mL) was inoculated to wells of a TC MICROWELL 96U plate (Nalge Nunc International, Catalogue No. 163320) and was cultured in a 5% carbon dioxide gas incubator at 37° C. for 4 hours. As a blank, only RPMI medium (80 μL) was added to a well. Each 20 μL of a solution of the test compound in dimethyl sulfoxide (DMSO) which was prepared to make the final concentration to 3.16 μmol/L or 10 μmol/L, was added to the MV-4-11 cell, ML-1 cell and K562 cell, respectively. Each 20 μL of DMSO was added to the control well and the blank well to a final concentration of 0.1%. After adding the test compound, the cells were incubated in a 5% carbon dioxide gas incubator at 37° C. for 72 hours. After adding 20 μL of WST-1 reagent {4-[3-(4-iodophenyl)-2-(4-nitrophenyl)-2H-5-tetrazolio]-1,3-benzene disulfonate sodium salt) (Roche Diagnostics K.K., Catalogue No. 1644807) diluted to 50% with RPMI medium, the cells were further incubated at 37° C. for 2 hours. Then, the absorbances at 450 nm (reference wavelength: 690 nm) were determined with a microplate spectrophotometer SPECTRA max 340PC (Molecular Devices Corporation). The relative growth (%) of a well to which the test compound had been added was determined while setting the absorbance of a well to which not the test compound but DMSO alone had been added (control) at 100% and that of a well containing RPMI medium alone at 0%. The cytostatic rate (%) of the test compound was determined by subtracting the calculated relative growth from 100.
On the technique in general: Tetrazolium assays rely on reduction of a dye to a coloured formazan, in cell work by metabolically active cells.

For another assay, the system named is K562. As to the kind of experiment: Cytostatic activity on human chronic myeloid leukemia cell line K562 (WST-1). The assay is classed as cell-based. Particulars: 10 μmol/L, 72 hours, read-out: K562 (%) cytostatic rate. The method, then: as §1, §2
In the next assay the test system is ML-1. As to the kind of experiment: Cytostatic activity on human acute myeloid leukemia cell line ML-1 (WST-1). The assay is classed as cell-based. The conditions noted are these: ML1, 3.16 μmol/L, 72 hours, read-out: ML-1 (%) cytostatic rate. The method, then: as §1, §2
Another assay has as its target T1, human Flt-3 (Homo sapiens, UniProt P36888).
T1 construct: fused to the N-terminus of the intracellular domain (583-953 amino acids) thereof; made in house; host or cells: insect cells (baculovirus)
T1 sequence (P36888 583-953): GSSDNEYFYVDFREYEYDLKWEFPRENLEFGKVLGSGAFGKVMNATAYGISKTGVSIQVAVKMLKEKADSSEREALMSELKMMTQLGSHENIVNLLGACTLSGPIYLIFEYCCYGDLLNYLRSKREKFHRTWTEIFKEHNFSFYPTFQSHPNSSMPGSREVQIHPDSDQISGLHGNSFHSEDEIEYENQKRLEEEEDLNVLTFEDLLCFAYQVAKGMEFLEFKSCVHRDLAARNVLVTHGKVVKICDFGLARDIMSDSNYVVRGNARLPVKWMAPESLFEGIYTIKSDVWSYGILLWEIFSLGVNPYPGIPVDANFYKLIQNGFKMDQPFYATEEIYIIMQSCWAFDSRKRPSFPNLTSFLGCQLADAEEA
The experiment in a line: Inhibitory activity on Flt-3 (GST-fused kinase, time-resolved fluoroimmunoassay). The assay is classed as biochemical. Particulars: tested compound 10 μmol/L, ATP 10 μmol/L, sixty minutes. As to the method: Flt-3 inhibitory activities were determined in the following manner.
Flt-3 was prepared by allowing baculovirus to infect insect cells, which baculovirus expresses a protein comprising human Flt-3 with […]. […] Separately was prepared a solution containing, at final concentrations, GST-fused Flt-3 (100 μg/L), Tris-Cl (pH 7.5) (20 mmol/L), β-glycerophosphate (5 mmol/L), dithiothreitol (DTT) (1 mmol/L), Na3VO4 (0.1 mmol/L), MgCl2 (10 mmol/L), MnCl2 (10 mmol/L), ATP (10 μmol/L), bovine serum albumin (BSA) (0.1%), DMSO (0.1%), and a tested compound (10 μmol/L). The solution (each 60 μL) was placed into the wells of the plate for the determination of kinase reaction, followed by enzymatic reaction at room temperature for sixty minutes. After reacting, the reaction was stopped by the addition of 50 μL of a 25 mmol/L aqueous solution of ethylenediaminetetraacetic acid. […] The relative activity (%) of a well in which the enzyme and tested compound were added was determined by calculation with the value in a well to which the tested compound was not added being 100% and the value in a well to which the enzyme and the tested compound were not added being 0%. The Flt-3 inhibitory activity (%) of the tested compound was determined by subtracting the relative activity (%) from 100.

In a further assay the test system is Colo205. The experiment in a line: Cytostatic activity on human colon cancer cell line Colo205 (WST-1). The assay is classed as cell-based. Particulars: 10 μmol/L, 72 hours. The method, then:
The cytostatic rate of a test compound on the human colon cancer cell line Colo205 was determined in the following manner.
The cell was cultured using Roswell Park Memorial Institute's-Medium (RPMI) 1640 (Gibco, Catalog No. 11875-093) containing 10% fetal bovine serum (Gibco, Catalog-No. 10437-028) and penicillin/streptomycin (1:1) (Gibco, Catalog No. 15140-122). Each 80 μL of the Colo205 having a concentration of 1.25×10^4 cells/mL was inoculated to wells of a TC MICROWELL 96F plate (Nalge Nunc International, Catalog No. 167008) and was cultured in a 5% carbon dioxide gas incubator at 37° C. for 4 hours. As a blank, only RPMI (80 μL) was added to a well. Each 20 μL of a solution of the test compound in DMSO which was prepared to make the final concentration to 10 μmol/L, was added to the Colo205 cell. Each 20 μL of DMSO was added to the control well and the blank well to a final concentration of 0.1%. After adding the test compound, the cell was incubated in a 5% carbon dioxide gas incubator at 37° C. for 72 hours. The cytostatic rate (%) was then determined in the same manner as the method or the leukemia cell lines described above.

Where a name gives a salt, the structure may show the parent alone.

Turning to `CCOC(=O)COc1ccc(/C=C/c2n[nH]c3ccccc23)cc1` [Compound 3, ethyl (E)-4-[2-(1H-indazol-3-yl)vinyl]phenoxyacetate], the inhibition at 3.16 µM in the assay on MV-4-11 was found to be 37%. Also, the inhibition at 10 µM in the assay on K562 worked out at 14%.

On to `OCCOc1ccc(/C=C/c2n[nH]c3ccccc23)cc1` [Compound 4, (E)-3-{2-[4-(2-hydroxyethoxy)phenyl]vinyl}-1H-indazole], for which the inhibition at 3.16 µM in the assay on MV-4-11 stood at 91%; in the assay with ML-1, 27%. The inhibition at 10 µM in the assay on K562 was found to be 72%.

As for `C(=C\c1n[nH]c2ccccc12)/c1ccc(OCCN2CCOCC2)cc1` [Compound 5, (E)-3-{2-[4-(2-morpholinoethoxy)phenyl]vinyl}-1H-indazole hydrochloride], the figures for the inhibition at 3.16 µM in the assay on MV-4-11 and with ML-1 were 91% and 16%, respectively. Moreover, the inhibition at 10 µM stood at 93.3% at human Flt-3 and 81% in the assay on K562. Also, the “Colo205(%) cytostatic rate” value with Colo205 is recorded as 90%.

`CCN(CC)CCOc1ccc(/C=C/c2n[nH]c3ccccc23)cc1` [Compound 6, (E)-3-{2-[4-(2-diethylaminoethoxy)phenyl]vinyl}-1H-indazole hydrochloride]: the inhibition at 3.16 µM stood at 97% in the assay with MV-4-11 and 89% in the assay on ML-1. For the same molecule, the inhibition at 10 µM in the assay on K562 was 98%.

With `CC(C)N(CCOc1ccc(/C=C/c2n[nH]c3ccccc23)cc1)C(C)C` [Compound 7, (E)-3-{2-[4-(2-diisopropylaminoethoxy)phenyl]vinyl}-1H-indazole hydrochloride], the inhibition at 3.16 µM with MV-4-11 turned out to be 97%; in the assay on ML-1 it was 89%. Further, the inhibition at 10 µM in the assay on K562 was found to be 93%.

`C(=C\c1n[nH]c2ccccc12)/c1ccc(OCCN2CCCCC2)cc1` [Compound 8, (E)-3-{2-[4-(2-piperidinoethoxy)phenyl]vinyl}-1H-indazole hydrochloride]: the inhibition at 3.16 µM in the assay with MV-4-11 amounted to 97%; in the assay on ML-1, 90%. The inhibition at 10 µM in the assay with K562 was 94%.

`C(=C\c1n[nH]c2ccccc12)/c1ccc(OCCCN2CCCCC2)cc1` [Compound 9, (E)-3-{2-[4-(3-piperidinopropoxy)phenyl]vinyl}-1H-indazole hydrochloride]: the inhibition at 3.16 µM in the assay on MV-4-11 is 97%; in the assay on ML-1, 92%. The inhibition at 10 µM in the assay with K562 was 97%.

On to `CN(C)CCCOc1ccc(/C=C/c2n[nH]c3ccccc23)cc1` [Compound 10, (E)-3-{2-[4-(3-dimethylaminopropoxy)phenyl]vinyl}-1H-indazole hydrochloride], for which the inhibition at 3.16 µM in the assay with MV-4-11 stood at 97%; in the assay with ML-1 it was 92%. The inhibition at 10 µM with K562 was found to be 95%.

`CN(C)CCOc1cccc(/C=C/c2n[nH]c3ccccc23)c1` [Compound 18, (E)-3-{2-[3-(2-dimethylaminoethoxy)phenyl]vinyl}-1H-indazole hydrochloride]: the inhibition at 3.16 µM was determined as 95% in the assay on MV-4-11 and 4.1% in the assay with ML-1. Also, the inhibition at 10 µM with K562 turned out to be 59%.

`C(=C\c1n[nH]c2ccccc12)/c1cccnc1` [Compound 21, (E)-3-[2-(3-pyridyl)vinyl]-1H-indazole]: the inhibition at 3.16 µM came out at 79% in the assay on MV-4-11 and 25% with ML-1. In addition, in the assay on K562, the inhibition at 10 µM is 41%.

With `COc1ccc(/C=C/c2n[nH]c3ccccc23)cn1` [Compound 22, (E)-3-[2-(6-methoxypyridin-3-yl)vinyl]-1H-indazole], the results for the inhibition at 3.16 µM in the assay on MV-4-11 and with ML-1 were 82% and 9.2%, respectively. In the assay on K562, the inhibition at 10 µM turned out to be 63%.

In the case of `COc1cc(/C=C/c2n[nH]c3ccccc23)ccc1OCC(=O)N1CCOCC1` [Compound 40, (E)-N-{4-[2-(1H-indazol-3-yl)vinyl]-2-methoxyphenoxy}acetylmorpholine], the inhibition at 3.16 µM with MV-4-11 and with ML-1 was 95% each time. In addition, the figures for the inhibition at 10 µM against human Flt-3 and in the assay with K562 were 93.8% and 60%, respectively. In the assay with Colo205, the “Colo205(%) cytostatic rate” value is listed as 93%.

On to `N#Cc1cc(/C=C/c2n[nH]c3ccccc23)ccc1OCCN1CCOCC1` [Compound 47, (E)-3-{2-[3-cyano-4-(2-morpholinoethoxy)phenyl]vinyl}-1H-indazole], for which the inhibition at 3.16 µM with MV-4-11 stood at 98%; in the assay on ML-1, 89%. The inhibition at 10 µM stood at 94.5% against human Flt-3 and 75% with K562. The “Colo205(%) cytostatic rate” value in the assay with Colo205 turned out to be 68%.

For the molecule `C(=C\c1n[nH]c2ccccc12)/c1ccc(N2CCNCC2)cc1.Cl` [Compound 53, (E)-3-{2-[4-(piperazin-1-yl)phenyl]vinyl}-1H-indazole hydrochloride], the inhibition at 3.16 µM with MV-4-11 is 97%; with ML-1, 80%. Moreover, the inhibition at 10 µM was determined as 95.2% on human Flt-3 and 87% in the assay on K562. Besides, in the assay on Colo205, the “Colo205(%) cytostatic rate” value is 90%.

As for `CC(=O)N1CCN(c2ccc(/C=C/c3n[nH]c4ccccc34)cc2)CC1` [Compound 54, (E)-3-(2-[4-(4-acetylpiperazin-1-yl)phenyl]vinyl}-1H-indazole], the results for the inhibition at 3.16 µM in the assay on MV-4-11 and with ML-1 were 98% and 89%, respectively. Further, the inhibition at 10 µM at human Flt-3 was determined as 94%; in the assay on K562, 59%. Further, in the assay on Colo205, the “Colo205(%) cytostatic rate” value is 78%.

As to `CC(=O)N1CCN(c2ccc(/C=C/c3n[nH]c4ccccc34)cc2N)CC1` [Compound 58, (E)-3-{2-[4-(4-acetylpiperazin-1-yl)-3-aminophenyl]vinyl}-1H-indazole], the inhibition at 3.16 µM was 97% in the assay on MV-4-11 and 90% in the assay on ML-1. Also, the inhibition at 10 µM in the assay on K562 was determined as 61%. Besides, in the assay on Colo205, the “Colo205(%) cytostatic rate” value stood at 91%.

Take `Nc1cc(/C=C/c2n[nH]c3ccccc23)ccc1N1CCNCC1` [Compound 59, (E)-3-{2-[3-amino-4-(piperazin-1-yl)phenyl]vinyl}-1H-indazole]: the inhibition at 3.16 µM in the assay on MV-4-11 is 98%; with ML-1, 86%. Also, in the assay on K562, the inhibition at 10 µM turned out to be 84%. In addition, the “Colo205(%) cytostatic rate” value in the assay with Colo205 worked out at 89%.

Source of the values: US20060281789A1, “Protein kinase inhibitors” (KYOWA HAKKO KOGYO CO., LTD, priority 2003, published 2006).
